Values of other authors as cited in US20060111343A1, “Oxcarbazepine dosage forms” (Glenmark Pharmaceuticals Limited, priority 2004, published 2006).

solubility in water: poor solubility in water
Structure (SMILES): NC(=O)N1c2ccccc2CC(=O)c2ccccc21 [Oxcarbazepine, 10,11-dihydro-10-oxo-5H-dibenzo[b,]azepine-5-carboxamide]
